Measured values from patent US7678810B2, “Thiazole derivative” (Taisho Pharmaceutical Co., Ltd, priority 2004, dated 2010).
Counter-ions that a name gives are not always drawn.

SMILES	melting point
CCC(CC)c1nc(-c2nc(C)cs2)c(-c2ccc3ncsc3c2)[nH]1 (as salt: HCl) [Compound 62]	207 to 212 °C
Cc1csc(-c2nc(CCCCC(=O)Nc3ccccc3)[nH]c2-c2ccc3ncsc3c2)n1 (as salt: HCl) [Compound 172]	105 to 117.5 °C
C=CCOC(=O)NCc1nc(-c2nc(C)cs2)c(-c2ccc3ncsc3c2)[nH]1 (as salt: HCl) [Compound 192]	174 to 175 °C
CCN(CC)C(=O)OCc1nc(-c2nc(C)cs2)c(-c2ccc3ncsc3c2)[nH]1 (as salt: HCl) [Compound 237]	119 to 124 °C
Cc1csc(-c2nc(CCCN3CCOCC3)[nH]c2-c2ccc3c(c2)OCO3)n1 (as salt: salt) [Compound 76]	118.5 to 128.5 °C
NC(=O)c1ccc(-c2nc(-c3nccs3)c(-c3ccc4c(c3)OCO4)[nH]2)cc1 [Compound 2]	240 to 249 °C
NC(=O)c1ccc(-c2nc(-c3nccs3)c(-c3ccccn3)[nH]2)cc1 [Compound 4]	255.5 to 256 °C
CC(O)c1nc(-c2nc(-c3ccc(C(N)=O)cc3)[nH]c2-c2ccc3c(c2)OCO3)cs1 (stereo not drawn) [Compound 6]	140 to 148 °C
CC(=O)c1nc(-c2nc(-c3ccc(C(N)=O)cc3)[nH]c2-c2ccc3c(c2)OCO3)cs1 [Compound 7]	153 to 159 °C
CCc1csc(-c2nc(-c3ccc(C(N)=O)cc3)[nH]c2-c2ccc3c(c2)OCO3)n1 [Compound 11]	259.5 to 261.5 °C
NC(=O)c1ccc(-c2nc(-c3nc(Br)cs3)c(-c3ccc4c(c3)OCO4)[nH]2)cc1 [Compound 13]	273 to 275.5 °C
Cc1csc(-c2nc(-c3ccc(C#N)cc3)[nH]c2-c2ccc(F)cc2)n1 [Compound 17]	283.5 to 286 °C
Cc1csc(-c2nc(-c3ccc(C(N)=O)cc3)[nH]c2-c2ccc(F)cc2)n1 [Compound 18]	281 to 281.5 °C
Cc1csc(-c2nc(N)[nH]c2-c2ccc3c(c2)OCO3)n1 [Compound 19]	205.5 to 208 °C
CC(=O)Nc1nc(-c2nc(C)cs2)c(-c2ccc3c(c2)OCO3)[nH]1 [Compound 20]	169 to 173 °C
Cc1csc(-c2nc(NC(=O)c3ccccc3)[nH]c2-c2ccc3c(c2)OCO3)n1 [Compound 22]	223 to 225 °C
COc1ccc(CC(=O)NCc2nc(-c3nc(C)cs3)c(-c3ccc4c(c3)OCO4)[nH]2)cc1 [Compound 26]	165.5 to 169.5 °C
Cc1csc(-c2nc(CCN)[nH]c2-c2ccc3c(c2)OCO3)n1 [Compound 27]	155.5 to 157.5 °C
CCCC(=O)NCCc1nc(-c2nc(C)cs2)c(-c2ccc3c(c2)OCO3)[nH]1 [Compound 28]	148 to 150 °C
CCCC(=O)NCCCc1nc(-c2nc(C)cs2)c(-c2ccc3c(c2)OCO3)[nH]1 [Compound 30]	134.5 to 138.5 °C
CCCC(=O)NCCCCc1nc(-c2nc(C)cs2)c(-c2ccc3c(c2)OCO3)[nH]1 [Compound 33]	132 to 133 °C
CCCNC(=O)c1nc(-c2nc(C)cs2)c(-c2ccc3c(c2)OCO3)[nH]1 [Compound 35]	199.6 to 200 °C
Cc1csc(-c2nc(C(=O)Nc3ccccc3)[nH]c2-c2ccc3c(c2)OCO3)n1 [Compound 36]	222 to 222.5 °C
CCCNC(=O)CCc1nc(-c2nc(C)cs2)c(-c2ccc3c(c2)OCO3)[nH]1 [Compound 38]	106.5 to 108.5 °C

SMILES	melting point
CCCNC(=O)CCCc1nc(-c2nc(C)cs2)c(-c2ccc3c(c2)OCO3)[nH]1 [Compound 40]	75 to 79 °C
COc1ccc(CNC(=O)CCCCc2nc(-c3nc(C)cs3)c(-c3ccc4c(c3)OCO4)[nH]2)cc1 [Compound 44]	174 to 175 °C
Cc1csc(-c2nc(-c3ccc(C(N)=O)cc3)[nH]c2-c2ccc(O)cc2)n1 [Compound 49]	> 300 °C
CCCCCCc1nc(-c2nc(C)cs2)c(-c2ccc3ncsc3c2)[nH]1 [Compound 64]	129 to 130.5 °C
CCCC(=O)NCc1nc(-c2nc(C)cs2)c(-c2ccc(O)cc2)[nH]1 [Compound 101]	135.5 to 136.5 °C
CCCC(=O)NCc1nc(-c2nc(C)cs2)c(-c2ccc(OC)c(OCc3ccccc3)c2)[nH]1 [Compound 104]	176 to 177 °C
Cc1csc(-c2nc(CNC(=O)CC(C)C)[nH]c2-c2ccc3ncsc3c2)n1 [Compound 107]	160 to 160.5 °C
Cc1csc(-c2nc(CNC(=O)C3CCC3)[nH]c2-c2ccc3ncsc3c2)n1 [Compound 108]	199 to 200 °C
Cc1csc(-c2nc(CNC(=O)C(C)(C)C)[nH]c2-c2ccc3ncsc3c2)n1 [Compound 109]	229 to 229.5 °C
Cc1csc(-c2nc(CNC(=O)CCC(C)C)[nH]c2-c2ccc3ncsc3c2)n1 [Compound 110]	172.5 to 173.5 °C
CCC(C)(C)C(=O)NCc1nc(-c2nc(C)cs2)c(-c2ccc3ncsc3c2)[nH]1 [Compound 111]	212.5 to 213.5 °C
Cc1csc(-c2nc(CNC(=O)C3CCCC3)[nH]c2-c2ccc3ncsc3c2)n1 [Compound 112]	156.5 to 161 °C
Cc1csc(-c2nc(CNC(=O)CN(C)C)[nH]c2-c2ccc3ncsc3c2)n1 [Compound 114]	211.5 to 212.5 °C
Cc1csc(-c2nc(CNC(=O)CCN(C)C)[nH]c2-c2ccc3ncsc3c2)n1 [Compound 115]	150 to 150.5 °C
Cc1csc(-c2nc(CNC(=O)CCCN(C)C)[nH]c2-c2ccc3ncsc3c2)n1 [Compound 116]	200.5 to 205.5 °C
Cc1csc(-c2nc(CNC(=O)C3CCN(C)CC3)[nH]c2-c2ccc3ncsc3c2)n1 [Compound 117]	204 to 205.5 °C
CNCC(=O)NCc1nc(-c2nc(C)cs2)c(-c2ccc3ncsc3c2)[nH]1 [Compound 118]	200.5 to 203.5 °C
Cc1csc(-c2nc(CNC(=O)CN)[nH]c2-c2ccc3ncsc3c2)n1 [Compound 120]	214.5 to 215 °C
Cc1csc(-c2nc(CNC(=O)CCO)[nH]c2-c2ccc3ncsc3c2)n1 [Compound 122]	215 to 218.5 °C
COCCOCC(=O)NCc1nc(-c2nc(C)cs2)c(-c2ccc3ncsc3c2)[nH]1 [Compound 123]	134 to 135.5 °C
COCCCC(=O)NCc1nc(-c2nc(C)cs2)c(-c2ccc3ncsc3c2)[nH]1 [Compound 125]	186.5 to 190 °C
Cc1csc(-c2nc(CNC(=O)COCCO)[nH]c2-c2ccc3ncsc3c2)n1 [Compound 126]	193 to 194 °C
COCCC(=O)NCc1nc(-c2nc(C)cs2)c(-c2ccc3ncsc3c2)[nH]1 [Compound 127]	154.5 to 155.5 °C
Cc1csc(-c2nc(CNC(=O)C3CCOC3)[nH]c2-c2ccc3ncsc3c2)n1 (stereo not drawn) [Compound 128]	174 to 175 °C

SMILES	melting point
Cc1csc(-c2nc(CNC(=O)C3CCCO3)[nH]c2-c2ccc3ncsc3c2)n1 (stereo not drawn) [Compound 130]	185 to 185.5 °C
CCCCNC(=O)c1nc(-c2nc(C)cs2)c(-c2ccc3ncsc3c2)[nH]1 [Compound 140]	209.5 to 212.5 °C
COC(=O)CCc1nc(-c2nc(C)cs2)c(-c2ccc3ncsc3c2)[nH]1 [Compound 142]	168.5 to 170.5 °C
Cc1csc(-c2nc(CCC(=O)NC(C)C)[nH]c2-c2ccc3ncsc3c2)n1 [Compound 145]	217.5 to 218 °C
Cc1csc(-c2nc(CCC(=O)NC3CC3)[nH]c2-c2ccc3ncsc3c2)n1 [Compound 146]	196.5 to 197 °C
Cc1csc(-c2nc(CCC(=O)NC(C)(C)C)[nH]c2-c2ccc3ncsc3c2)n1 [Compound 147]	201.5 to 202 °C
Cc1csc(-c2nc(CCC(=O)N3CCCCC3)[nH]c2-c2ccc3ncsc3c2)n1 [Compound 148]	179 to 180 °C
Cc1csc(-c2nc(CCC(=O)NCCN(C)C)[nH]c2-c2ccc3ncsc3c2)n1 [Compound 149]	163.5 to 164 °C
Cc1csc(-c2nc(CCC(=O)NCCCN(C)C)[nH]c2-c2ccc3ncsc3c2)n1 [Compound 150]	78.5 to 82.5 °C
Cc1csc(-c2nc(CCC(=O)NCCN3CCCCC3)[nH]c2-c2ccc3ncsc3c2)n1 [Compound 151]	114 to 119 °C
Cc1csc(-c2nc(CCC(=O)NCCN3CCCC3)[nH]c2-c2ccc3ncsc3c2)n1 [Compound 152]	171 to 173 °C
Cc1csc(-c2nc(CCC(=O)NCCCN3CCN(C)CC3)[nH]c2-c2ccc3ncsc3c2)n1 [Compound 153]	188 to 189 °C
Cc1csc(-c2nc(CCC(=O)N3CCN(C)CC3)[nH]c2-c2ccc3ncsc3c2)n1 [Compound 155]	201 to 201.5 °C
Cc1csc(-c2nc(CCC(=O)N3CCN(CCN4CCOCC4)CC3)[nH]c2-c2ccc3ncsc3c2)n1 [Compound 157]	164.5 to 166 °C
Cc1csc(-c2nc(CCC(=O)N3CCN(CCN(C)C)CC3)[nH]c2-c2ccc3ncsc3c2)n1 [Compound 158]	169.5 to 172 °C
Cc1csc(-c2nc(CCC(=O)N3CCOCC3)[nH]c2-c2ccc3c(c2)OCO3)n1 [Compound 161]	216.5 to 218 °C
COCCCNC(=O)CCc1nc(-c2nc(C)cs2)c(-c2ccc3ncsc3c2)[nH]1 [Compound 164]	144.5 to 145 °C
COc1ccc(CNC(=O)CCCCc2nc(-c3nc(C)cs3)c(-c3ccc4ncsc4c3)[nH]2)cc1 [Compound 173]	140 to 140.5 °C
CCCNC(=O)NCc1nc(-c2nc(C)cs2)c(-c2ccc3ncsc3c2)[nH]1 [Compound 177]	179.5 to 182 °C
Cc1csc(-c2nc(CNC(=O)NC(C)C)[nH]c2-c2ccc3ncsc3c2)n1 [Compound 178]	178.5 to 180 °C
CCCCNC(=O)NCc1nc(-c2nc(C)cs2)c(-c2ccc3ncsc3c2)[nH]1 [Compound 179]	190.5 to 191.5 °C
CCN(CC)C(=O)NCc1nc(-c2nc(C)cs2)c(-c2ccc3ncsc3c2)[nH]1 [Compound 181]	222.5 to 223 °C
CCCCCNC(=O)NCc1nc(-c2nc(C)cs2)c(-c2ccc3ncsc3c2)[nH]1 [Compound 182]	199 to 201 °C
Cc1csc(-c2nc(CNC(=O)NC3CCCC3)[nH]c2-c2ccc3ncsc3c2)n1 [Compound 183]	185.5 to 188 °C
